Laboratory results published in ChEMBL document CHEMBL1201862, “PubChem BioAssay data set” (2004).
Activity calls are given as the source filed them.

Experiments:
[1] = test system: Streptococcus; experiment: Luminescence Microorganism-Based Dose Response Follow up to Identify Compounds Cytotoxic to Streptococcus. [Related pubchem assays: 1677 (Project Summary), 1915, 1914, 1902 (Retest at Dose), 1900 (Counter Screen), 1662 (Primary HTS)]; type: functional, organism-based
[2] = target: G-protein coupled receptor 35 (Homo sapiens, UniProt Q9HC97); experiment: GPR35 antagonists blocking zaprinast-driven arrestin recruitment, primary screen, imaging, U2OS, beta-arrestin-GFP, zaprinast agonist (AID 2058); type: functional;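 further: antagonist potency meaning inhibition of agonist-induced arrestin redistribution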
[3] = target: T1, Neuropeptide Y receptor type 1 (Homo sapiens, UniProt P25929); experiment: Fluorescence-based dose response cell-based high-throughput screening assay for agonists of NPY-Y1. [Related pubchem assays: 1697 (Screening assay (NPY-Y1 agonists).), 1359 (Screening assay (NPY-Y2 potentiators or agonists).), 1304 (Screening assay (NPY-Y1 potentiators or agonists).), 1704 (Screening assay (CNGC inhibitors).), 1791 (Summary AID.)]; type: functional
T1 sequence (P25929 whole entry): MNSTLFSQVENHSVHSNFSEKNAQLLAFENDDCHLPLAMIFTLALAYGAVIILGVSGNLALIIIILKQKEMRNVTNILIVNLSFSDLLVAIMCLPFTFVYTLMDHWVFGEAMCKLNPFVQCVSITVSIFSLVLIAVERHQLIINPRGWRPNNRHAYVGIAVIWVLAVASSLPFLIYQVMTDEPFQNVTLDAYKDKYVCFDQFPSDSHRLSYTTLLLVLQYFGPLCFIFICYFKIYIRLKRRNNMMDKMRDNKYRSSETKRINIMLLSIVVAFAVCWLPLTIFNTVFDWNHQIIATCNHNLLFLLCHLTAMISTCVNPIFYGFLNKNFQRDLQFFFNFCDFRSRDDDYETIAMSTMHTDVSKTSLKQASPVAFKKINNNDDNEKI

[4] = target: T2, Neuropeptide Y receptor type 2 (Homo sapiens, UniProt P49146); experiment: Fluorescence-based counterscreen for agonists of NPY-Y1: cell-based high-throughput dose response assay for agonists of NPY-Y2.; type: functional
T2 sequence (P49146 whole entry): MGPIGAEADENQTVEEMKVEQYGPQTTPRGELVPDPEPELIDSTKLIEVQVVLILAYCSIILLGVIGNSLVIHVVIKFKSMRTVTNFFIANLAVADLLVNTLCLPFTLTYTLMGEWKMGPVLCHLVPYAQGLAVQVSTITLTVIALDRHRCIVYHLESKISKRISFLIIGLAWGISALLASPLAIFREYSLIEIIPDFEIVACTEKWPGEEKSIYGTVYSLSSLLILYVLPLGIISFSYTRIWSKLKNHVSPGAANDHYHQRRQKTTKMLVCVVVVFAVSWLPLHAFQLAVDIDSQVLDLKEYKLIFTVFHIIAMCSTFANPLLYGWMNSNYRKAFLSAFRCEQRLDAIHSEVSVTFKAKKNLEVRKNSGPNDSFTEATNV

[5] = test system: HEK293; experiment: Fluorescence-based counterscreen for potentiators or agonists of NPY-Y1: cell-based high-throughput dose response assay for inhibitors of cyclic nucleotide gated ion channel (CNGC) activity. In this assay, the parental HEK293 cell line transfected with a cyclic-nucleotide gated ion channel (CNGC)-based cAMP sensor is used to measure inhibition of isoproterenol-induced CNGC …; type: functional; conditions: Homo sapiens
[6] = target: Ras and Rab interactor 1/Tyrosine-protein kinase ABL1 (Homo sapiens, UniProt P00519+Q13671); type: functional;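 further: biochemical TR-FRET dose-response test measuring inhibition of binding between Rin1 and Abl proteins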
[7] = target: T1, Neuropeptide Y receptor type 1; type: functional
[8] = target: T2, Neuropeptide Y receptor type 2; type: functional, cell-based
[9] = target: Peroxisome proliferator-activated receptor gamma (Homo sapiens, UniProt P37231); experiment: PPARg ligand-binding domain binders, dose response, PPARg partial agonist project, biochemical, TR-FRET, LanthaScreen (AID 504446)
[10] = Counterscreen for IDE inhibitors: Luminescence-based cell-based high throughput dose response assay to identify compounds that are cytotoxic to HEK cells. [Related pubchem assays: 434962 (Primary screen (IDE inhibitors in singlicate)), 449730 (Counterscreen (Cytotoxicity in triplicate)), 435028 (Confirmation (IDE inhibitors in triplicate)) …; type: functional; conditions: HEK293
[11] = target: T3, Insulin-degrading enzyme (Homo sapiens, UniProt P14735); experiment: Dose Response: Fluorescence polarization-based cell-based high throughput dose response assay for inhibitors of insulin-degrading enzyme (IDE). [Related pubchem assays: 434962 (Primary screen (IDE inhibitors in singlicate)), 449730 (Counterscreen (Cytotoxicity in triplicate)), 435028 (Confirmation (IDE inhibitors in triplicate)), 434984 (Summary …; type: functional
T3 sequence (P14735 whole entry): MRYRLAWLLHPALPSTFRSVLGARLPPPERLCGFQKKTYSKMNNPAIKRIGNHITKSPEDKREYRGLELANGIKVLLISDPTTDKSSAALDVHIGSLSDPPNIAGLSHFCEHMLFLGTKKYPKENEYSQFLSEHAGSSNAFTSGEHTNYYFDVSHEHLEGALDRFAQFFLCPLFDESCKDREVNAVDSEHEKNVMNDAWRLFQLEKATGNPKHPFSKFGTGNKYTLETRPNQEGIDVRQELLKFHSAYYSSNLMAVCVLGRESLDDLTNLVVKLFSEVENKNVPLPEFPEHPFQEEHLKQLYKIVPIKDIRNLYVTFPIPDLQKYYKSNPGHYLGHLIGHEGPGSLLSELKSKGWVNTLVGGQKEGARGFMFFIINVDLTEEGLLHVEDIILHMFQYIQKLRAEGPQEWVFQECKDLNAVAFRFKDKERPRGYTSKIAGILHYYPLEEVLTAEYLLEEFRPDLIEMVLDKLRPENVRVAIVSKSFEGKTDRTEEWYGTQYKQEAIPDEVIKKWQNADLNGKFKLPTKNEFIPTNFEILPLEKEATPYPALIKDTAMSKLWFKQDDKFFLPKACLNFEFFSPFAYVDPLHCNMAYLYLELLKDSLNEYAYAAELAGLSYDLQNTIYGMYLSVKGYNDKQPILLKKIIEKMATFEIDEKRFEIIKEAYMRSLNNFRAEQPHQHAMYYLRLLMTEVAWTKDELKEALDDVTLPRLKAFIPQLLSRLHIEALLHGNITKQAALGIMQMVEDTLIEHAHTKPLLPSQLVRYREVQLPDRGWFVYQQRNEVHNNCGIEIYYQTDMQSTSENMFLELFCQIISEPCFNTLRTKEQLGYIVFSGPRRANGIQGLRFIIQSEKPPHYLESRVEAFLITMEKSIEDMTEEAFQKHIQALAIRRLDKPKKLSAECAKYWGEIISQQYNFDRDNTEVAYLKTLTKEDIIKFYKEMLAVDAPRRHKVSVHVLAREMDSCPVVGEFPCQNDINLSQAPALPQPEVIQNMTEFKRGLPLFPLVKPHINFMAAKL

Chain of Peroxisome proliferator-activated receptor gamma (P37231 whole entry, the tested form may be a part): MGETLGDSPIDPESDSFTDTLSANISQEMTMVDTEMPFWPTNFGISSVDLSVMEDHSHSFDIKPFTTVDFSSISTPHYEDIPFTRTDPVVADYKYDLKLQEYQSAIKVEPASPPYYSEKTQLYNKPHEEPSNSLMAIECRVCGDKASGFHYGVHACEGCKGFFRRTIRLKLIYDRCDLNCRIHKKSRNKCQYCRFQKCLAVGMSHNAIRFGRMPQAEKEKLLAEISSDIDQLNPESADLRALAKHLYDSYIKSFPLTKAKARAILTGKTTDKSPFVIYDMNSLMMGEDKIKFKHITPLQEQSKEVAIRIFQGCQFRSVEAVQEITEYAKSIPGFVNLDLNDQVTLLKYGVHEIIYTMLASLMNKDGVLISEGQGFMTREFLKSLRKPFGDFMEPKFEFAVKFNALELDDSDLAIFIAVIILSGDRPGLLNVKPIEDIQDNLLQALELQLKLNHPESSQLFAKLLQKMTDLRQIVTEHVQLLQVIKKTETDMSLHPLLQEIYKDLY
Chain of Ras and Rab interactor 1/Tyrosine-protein kinase ABL1 (P00519 whole entry): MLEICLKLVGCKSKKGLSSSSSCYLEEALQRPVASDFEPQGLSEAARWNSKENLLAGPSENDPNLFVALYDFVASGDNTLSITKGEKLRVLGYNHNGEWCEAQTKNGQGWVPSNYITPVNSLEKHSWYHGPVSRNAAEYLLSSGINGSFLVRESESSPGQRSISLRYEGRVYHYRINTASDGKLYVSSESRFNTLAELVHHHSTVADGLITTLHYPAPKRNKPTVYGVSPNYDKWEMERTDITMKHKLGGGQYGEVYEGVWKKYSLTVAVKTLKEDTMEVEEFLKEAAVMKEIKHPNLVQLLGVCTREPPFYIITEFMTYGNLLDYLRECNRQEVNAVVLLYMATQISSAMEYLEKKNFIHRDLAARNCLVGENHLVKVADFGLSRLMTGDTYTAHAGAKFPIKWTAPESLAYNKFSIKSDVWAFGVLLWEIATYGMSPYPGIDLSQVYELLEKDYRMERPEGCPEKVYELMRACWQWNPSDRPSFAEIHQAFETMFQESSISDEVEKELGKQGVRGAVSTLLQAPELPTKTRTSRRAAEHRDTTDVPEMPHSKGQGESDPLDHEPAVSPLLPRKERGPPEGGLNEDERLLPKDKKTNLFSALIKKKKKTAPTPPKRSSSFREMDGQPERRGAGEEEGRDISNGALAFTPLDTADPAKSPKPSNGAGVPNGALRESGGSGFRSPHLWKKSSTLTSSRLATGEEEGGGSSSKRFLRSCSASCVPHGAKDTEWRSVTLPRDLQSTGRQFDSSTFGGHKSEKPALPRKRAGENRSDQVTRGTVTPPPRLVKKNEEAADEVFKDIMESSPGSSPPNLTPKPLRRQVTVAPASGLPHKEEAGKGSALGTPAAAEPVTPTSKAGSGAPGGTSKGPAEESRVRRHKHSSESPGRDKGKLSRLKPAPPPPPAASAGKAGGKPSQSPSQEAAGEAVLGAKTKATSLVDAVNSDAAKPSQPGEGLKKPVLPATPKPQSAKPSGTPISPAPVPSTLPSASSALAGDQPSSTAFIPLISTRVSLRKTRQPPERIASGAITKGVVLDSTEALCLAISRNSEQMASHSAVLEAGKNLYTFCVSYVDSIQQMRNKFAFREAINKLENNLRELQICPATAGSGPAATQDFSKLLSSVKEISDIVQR
Chain of Ras and Rab interactor 1/Tyrosine-protein kinase ABL1 (Q13671 whole entry): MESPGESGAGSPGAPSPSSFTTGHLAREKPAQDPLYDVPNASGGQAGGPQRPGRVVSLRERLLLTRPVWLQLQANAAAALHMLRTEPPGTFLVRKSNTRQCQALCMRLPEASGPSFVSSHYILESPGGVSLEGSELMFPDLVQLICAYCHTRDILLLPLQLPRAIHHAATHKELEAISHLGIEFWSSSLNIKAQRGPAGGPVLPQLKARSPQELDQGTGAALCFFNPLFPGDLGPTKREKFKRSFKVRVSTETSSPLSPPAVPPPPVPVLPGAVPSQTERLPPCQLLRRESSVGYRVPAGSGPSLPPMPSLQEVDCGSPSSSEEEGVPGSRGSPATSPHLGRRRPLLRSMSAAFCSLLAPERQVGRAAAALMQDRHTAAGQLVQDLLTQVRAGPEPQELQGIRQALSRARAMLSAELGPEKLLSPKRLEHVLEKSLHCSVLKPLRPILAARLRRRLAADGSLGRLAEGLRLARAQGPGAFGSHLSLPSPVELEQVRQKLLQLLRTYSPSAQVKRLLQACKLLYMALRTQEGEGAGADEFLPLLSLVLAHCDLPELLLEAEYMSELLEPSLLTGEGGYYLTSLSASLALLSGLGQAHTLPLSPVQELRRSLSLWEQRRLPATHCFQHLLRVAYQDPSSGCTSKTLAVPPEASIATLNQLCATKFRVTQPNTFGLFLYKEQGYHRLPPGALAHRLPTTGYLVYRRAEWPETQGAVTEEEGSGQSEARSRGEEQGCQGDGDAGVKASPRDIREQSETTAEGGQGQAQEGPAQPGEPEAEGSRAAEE
Chain of G-protein coupled receptor 35 (Q9HC97 whole entry): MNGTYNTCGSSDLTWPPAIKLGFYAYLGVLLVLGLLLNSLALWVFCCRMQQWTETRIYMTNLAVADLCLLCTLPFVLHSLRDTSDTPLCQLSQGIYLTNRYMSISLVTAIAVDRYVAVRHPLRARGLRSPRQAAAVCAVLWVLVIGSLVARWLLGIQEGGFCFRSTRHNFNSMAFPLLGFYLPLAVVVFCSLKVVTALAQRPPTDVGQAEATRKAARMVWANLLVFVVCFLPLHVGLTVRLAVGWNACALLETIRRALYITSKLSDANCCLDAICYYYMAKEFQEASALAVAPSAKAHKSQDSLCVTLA

Q: With `CN1C(=O)/C(=C\c2cccn2-c2ccc3ccccc3c2)C(=O)NC1=S` as the compound, how does the EC50 [1] read?
A: > 260 µM (not active)

Q: With `CCCCCOC(=O)c1ccc(NC(=O)c2cccc(NC(=O)c3ccccc3C(=O)O)c2)cc1` as the compound, how does the IC50 [2] read?
A: 1 µM (active)

Q: Which EC50 [3] does the source give for `CC1CC(C)CN(CCCNC(=O)c2cc3c(O)nc4ccccc4c3n2C)C1` (stereo unspecified) here?
A: > 35.4 µM (not active)

Q: What about the EC50 [4] of the same compound?
A: > 35.4 µM (not active)

Q: What about the IC50 [5] of the same compound?
A: 19.8 µM (not active)

Q: For `CCOC(=O)CCCCC(=O)c1[nH]c(O)nc1CSc1nnc2c3ccccc3n(C(C)C)c2n1`, which IC50 [6] is on record?
A: 3.46 µM (active)

Q: And the IC50 [7]?
A: 7.63 µM (active)

Q: And the IC50 [8]?
A: 2.95 µM (active)

Q: For `O=C(O)CCN1C(=O)/C(=C/c2ccc(C(F)(F)F)cc2C(F)(F)F)SC1=S`, which IC50 [9] is on record?
A: 2 µM (active)

Q: For `CN(C)c1ccc(/C=C2\SC(N3CCCCC3)=NC2=O)cc1`, which IC50 [10] is on record?
A: 23 µM (not active)

Q: And the IC50 [11]?
A: 17.9 µM (not active)
